Results taken from patent publication US10106544B2, “1,2-dihydro-3H-pyrrolo[1,2-C]imidazol-3-one derivatives and their use as antibacterial agents” (priority 2014, dated 2018).
≈ marks a conversion by molar mass, not a printed value.

Tests used:
Experiment in all cases: Bacterial growth minimal inhibitory concentration (microdilution, cation-adjusted Mueller-Hinton Broth)
Type in all cases: cell-based
K. pneumoniae A-651 = settings: multiply-resistant strain (in particular quinolone-resistant); for MIC: Klebsiella pneumoniae, A651, read-out: MIC for K. Pneumoniae A-651
Description: (§1) Minimal Inhibitory Concentrations (MICs; mg/L) were determined in cation-adjusted Mueller-Hinton Broth by a microdilution method following the description given in “Methods for Dilution Antimicrobial Susceptibility Tests for Bacteria that Grow Aerobically”, Approved standard, 7th ed., a Clinical and Laboratory Standards Institute (CLSI) Document M7-A7, Wayne, Pa., USA (2006).
(§2) All Example compounds were tested against several Gram-positive and Gram-negative bacteria. […] K. pneumoniae A-651 is a multiply-resistant strain (in particular quinolone-resistant), while E. coli ATCC25922 and P. aeruginosa ATCC27853 are quinolone-sensitive strains.

E. coli ATCC25922 = settings: quinolone-sensitive strain; for MIC: Escherichia coli, ATCC25922, read-out: MIC for E. coli ATCC25922
Description: as §1, §2

P. aeruginosa ATCC27853 = settings: for MIC: Pseudomonas aeruginosa, ATCC27853, quinolone-sensitive strain, read-out: MIC for P. aeruginosa ATCC27853
Description: as §1, §2

MIC (K. pneumoniae A-651) | MIC (E. coli ATCC25922) | MIC (P. aeruginosa ATCC27853) | MIC for K. Pneumoniae A-651 (K. pneumoniae A-651) | MIC for E. coli ATCC25922 (E. coli ATCC25922) | MIC for P. aeruginosa ATCC27853 (P. aeruginosa ATCC27853; quinolone-sensitive strain) | SMILES
1 mg/L | 0.5 mg/L | 4 mg/L |  |  |  | C[C@@](CCN1Cc2cc(C#CC#CC(CO)C3CCC3)cn2C1=O)(C(=O)NO)S(C)(=O)=O (mixture of isomers) [Example 60, (2R)-4-(6-((5RS)-5-cyclobutyl-6-hydroxyhexa-1,3-diyn-1-yl)-3-oxo-1H-pyrrolo[1,2-c]imidazol-2(3H)-yl)-N-hydroxy-2-methyl-2-(methylsulfonyl)butanamide]
16 mg/L (≈ 34.5 µM) | 8 mg/L (≈ 17.3 µM) | 16 mg/L (≈ 34.5 µM) |  |  |  | CC(CCN1Cc2cc(-c3ccc(C4(O)COC4)cc3)cn2C1=O)(C(=O)NO)S(C)(=O)=O (racemic) [RE1, (RS)—N-hydroxy-4-(6-(4-(3-hydroxyoxetan-3-yl)phenyl)-3-oxo-1H-pyrrolo[1,2-c]imidazol-2(3H)-yl)-2-methyl-2-(methylsulfonyl)butanamide]
2 mg/L (≈ 3.99 µM) | 2 mg/L (≈ 3.99 µM) | 8 mg/L (≈ 15.9 µM) |  |  |  | CCOC(C)(C)c1ccc(C#Cc2cc3n(c2)C(=O)N(CCC(C)(C(=O)NO)S(C)(=O)=O)C3)cc1 (racemic) [RE2, (RS)-4-(6-((4-(2-ethoxypropan-2-yl)phenyl)ethynyl)-3-oxo-1H-pyrrolo[1,2-c]imidazol-2(3H)-yl)-N-hydroxy-2-methyl-2-(methylsulfonyl)butanamide]
1 mg/L (≈ 2.16 µM) | 0.5 mg/L (≈ 1.08 µM) | 4 mg/L (≈ 8.63 µM) |  |  |  | CC(CCN1Cc2cc(C#Cc3ccc(CO)cc3F)cn2C1=O)(C(=O)NO)S(C)(=O)=O (racemic) [RE3, (RS)-4-(6-((2-fluoro-4-(hydroxymethyl)phenyl)ethynyl)-3-oxo-1H-pyrrolo[1,2-c]imidazol-2(3H)-yl)-N-hydroxy-2-methyl-2-(methylsulfonyl)butanamide]
0.5 mg/L (≈ 1.06 µM) | 0.25 mg/L (≈ 0.528 µM) | 2 mg/L (≈ 4.22 µM) |  |  |  | CC(C)(O)C#Cc1ccc(-c2cc3n(c2)C(=O)N(CCC(C)(C(=O)NO)S(C)(=O)=O)C3)cc1 (racemic) [RE4, (RS)—N-hydroxy-4-(6-(4-(3-hydroxy-3-methylbut-1-yn-1-yl)phenyl)-3-oxo-1H-pyrrolo[1,2-c]imidazol-2(3H)-yl)-2-methyl-2-(methylsulfonyl)butanamide]
8 mg/L (≈ 19 µM) | 2 mg/L (≈ 4.75 µM) | 4 mg/L (≈ 9.49 µM) |  |  |  | CC(C)(O)C#CC#Cc1cc2n(c1)C(=O)N(CCC(C)(C(=O)NO)S(C)(=O)=O)C2 (racemic) [RE5, (RS)—N-hydroxy-4-(6-(5-hydroxy-5-methylhexa-1,3-diyn-1-yl)-3-oxo-1H-pyrrolo[1,2-c]imidazol-2(3H)-yl)-2-methyl-2-(methylsulfonyl)butanamide]
8 mg/L (≈ 15.2 µM) | 2 mg/L (≈ 3.79 µM) | 2 mg/L (≈ 3.79 µM) |  |  |  | CN1CCN(Cc2ccc(C#Cc3cc4n(c3)C(=O)N(CCC(C)(C(=O)NO)S(C)(=O)=O)C4)cc2)CC1 (racemic) [RE6, (RS)—N-hydroxy-2-methyl-4-(6-((4-((4-methylpiperazin-1-yl)methyl)phenyl)ethynyl)-3-oxo-1H-pyrrolo[1,2-c]imidazol-2(3H)-yl)-2-(methylsulfonyl)butanamide]
8 mg/L (≈ 17.7 µM) | 4 mg/L (≈ 8.86 µM) | 8 mg/L (≈ 17.7 µM) |  |  |  | CC(CCN1Cc2cc(-c3ccc(OCCO)cc3)cn2C1=O)(C(=O)NO)S(C)(=O)=O (racemic) [RE7, (RS)—N-hydroxy-4-(6-(4-(2-hydroxyethoxy)phenyl)-3-oxo-1H-pyrrolo[1,2-c]imidazol-2(3H)-yl)-2-methyl-2-(methylsulfonyl)butanamide]
2 mg/L (≈ 4.3 µM) | 2 mg/L (≈ 4.3 µM) | 8 mg/L (≈ 17.2 µM) |  |  |  | COCCOc1ccc(-c2cc3n(c2)C(=O)N(CCC(C)(C(=O)NO)S(C)(=O)=O)C3)cc1 (racemic) [RE8, (RS)—N-hydroxy-4-(6-(4-(2-methoxyethoxy)phenyl)-3-oxo-1H-pyrrolo[1,2-c]imidazol-2(3H)-yl)-2-methyl-2-(methylsulfonyl)butanamide]
2 mg/L (≈ 4.72 µM) | 0.125 mg/L (≈ 0.295 µM) | 0.5 mg/L (≈ 1.18 µM) |  |  |  | Cc1ccc(-c2cc3n(c2)C(=O)N(CCC(C)(C(=O)NO)S(C)(=O)=O)C3)c(F)c1 (racemic) [RE9, (RS)-4-(6-(2-fluoro-4-methylphenyl)-3-oxo-1H-pyrrolo[1,2-c]imidazol-2(3H)-yl)-N-hydroxy-2-methyl-2-(methylsulfonyl)butanamide]
8 mg/L (≈ 17.1 µM) | 0.25 mg/L (≈ 0.535 µM) | 2 mg/L (≈ 4.28 µM) |  |  |  | CC(C)Oc1ccc(-c2cc3n(c2)C(=O)N(CCC(C)(C(=O)NO)S(C)(=O)=O)C3)cc1F (racemic) [RE10, (RS)-4-(6-(3-fluoro-4-isopropoxyphenyl)-3-oxo-1H-pyrrolo[1,2-c]imidazol-2(3H)-yl)-N-hydroxy-2-methyl-2-(methylsulfonyl)butanamide]
0.5 mg/L (≈ 1.11 µM) | 0.125 mg/L (≈ 0.277 µM) | 1 mg/L (≈ 2.21 µM) |  |  |  | C[C@@](CCN1Cc2cc(C#CC#C[C@@]3(F)C[C@@H]3CO)cn2C1=O)(C(=O)NO)S(C)(=O)=O (relative stereo) [Example 66, (R)-4-(6-(((1R*,2R*)-1-fluoro-2-(hydroxymethyl)cyclopropyl)buta-1,3-diyn-1-yl)-3-oxo-1H-pyrrolo[1,2-c]imidazol-2(3H)-yl)-N-hydroxy-2-methyl-2-(methylsulfonyl)butanamide]
 |  |  | 0.5 mg/L | 0.125 mg/L | 0.5 mg/L | C[C@@](CCN1Cc2cc(C#CC#C[C@@]3(F)C[C@@H]3CO)cn2C1=O)(C(=O)NO)S(C)(=O)=O (relative stereo) [Example 67, (R)-4-(6-(((1R*,2R*)-1-fluoro-2-(hydroxymethyl)cyclopropyl)buta-1,3-diyn-1-yl)-3-oxo-1H-pyrrolo[1,2-c]imidazol-2(3H)-yl)-N-hydroxy-2-methyl-2-(methylsulfonyl)butanamide]
0.5 mg/L (≈ 1.11 µM) | 0.25 mg/L (≈ 0.554 µM) | 0.5 mg/L (≈ 1.11 µM) |  |  |  | C[C@@](CCN1Cc2cc(C#CC#C[C@H]3C[C@]3(F)CO)cn2C1=O)(C(=O)NO)S(C)(=O)=O (single isomer, unassigned) [Example 78]
0.25 mg/L (≈ 0.554 µM) | 0.25 mg/L (≈ 0.554 µM) | 0.5 mg/L (≈ 1.11 µM) |  |  |  | C[C@@](CCN1Cc2cc(C#CC#C[C@@H]3C[C@@]3(F)CO)cn2C1=O)(C(=O)NO)S(C)(=O)=O (single isomer, unassigned) [Example 79]
≤ 0.063 mg/L | 0.125 mg/L (≈ 0.284 µM) | 1 mg/L (≈ 2.28 µM) |  |  |  | COc1ccc(-c2cc3n(c2)C(=O)N(CC[C@](C)(C(=O)NO)S(C)(=O)=O)C3)c(F)c1 [Example 1, (R)-4-(6-(2-fluoro-4-methoxyphenyl)-3-oxo-1H-pyrrolo[1,2-c]imidazol-2(3H)-yl)-N-hydroxy-2-methyl-2-(methylsulfonyl)butanamide]
1 mg/L (≈ 2.05 µM) | 0.5 mg/L (≈ 1.03 µM) | 1 mg/L (≈ 2.05 µM) |  |  |  | C[C@@](CCN1Cc2cc(C#Cc3ccc(C4(O)COC4)cc3)cn2C1=O)(C(=O)NO)S(C)(=O)=O [Example 2, (R)-N-hydroxy-4-(6-((4-(3-hydroxyoxetan-3-yl)phenyl)ethynyl)-3-oxo-1H-pyrrolo[1,2-c]imidazol-2(3H)-yl)-2-methyl-2-(methylsulfonyl)butanamide]
0.5 mg/L (≈ 1.12 µM) | 0.125 mg/L (≈ 0.281 µM) | 2 mg/L (≈ 4.49 µM) |  |  |  | C[C@@](CCN1Cc2cc(C#Cc3ccc(CO)cc3)cn2C1=O)(C(=O)NO)S(C)(=O)=O [Example 3, (R)-N-hydroxy-4-(6-((4-(hydroxymethyl)phenyl)ethynyl)-3-oxo-1H-pyrrolo[1,2-c]imidazol-2(3H)-yl)-2-methyl-2-(methylsulfonyl)butanamide]
